# Results taken from PubChem BioAssay AID2305 (GlaxoSmithKline (GSK), 2010).
# Tested on: P. falciparum 3D7 growth, pLDH absorbance
# Test: blood-stage malaria parasite growth potency – strain 3D7, dose response (AID 2305)
row,Structure (SMILES),IC50 [nM]
1,O=[N+]([O-])c1cccc(-c2nc(-c3ccc(Br)cc3)[nH]c2-c2ccc(Br)cc2)c1,760
2,CCCCNCc1ccc(-c2nc(CN(Cc3ccc(Cl)c(Cl)c3)S(=O)(=O)c3ccc(NC(C)=O)cc3)cs2)cc1,1030
3,COc1ccc(CNCc2cccc(-c3ccc(-c4nc5ccccc5[nH]4)cc3)c2)cc1,310
4,O=C(Nc1cccc(-c2ccc(-c3nc4ccc(C(F)(F)F)cc4[nH]3)cc2)c1)c1cnc[nH]1,970
5,COC(=O)c1ccc(CC(C)NCC(O)c2cccc(C(F)(F)F)c2)cc1F (centres undefined),1060
6,OCC1CCN(Cc2cccc(C#Cc3cc4ncnc(Nc5ccc(OCc6cccc(F)c6)c(Cl)c5)c4s3)n2)CC1,550
7,CC(C)(C(=O)Nc1ccc(C2CCC(NCC3CC3)CC2)c(Cl)c1)c1ccc(C(F)(F)F)cc1 (centres undefined),960
8,CN(C)CCOc1cc(NC(=O)Nc2ccc(-c3ccncc3)c(C(F)(F)F)c2)ccc1Cl,990
9,COc1cc(NC(=O)c2cccc([N+](=O)[O-])c2)cc(S(=O)(=O)c2ccc(Cl)cc2)c1,1130
10,C=CCc1cc(C2CCN(CCCCNC(=O)c3ccc(-c4ccc(C#N)cc4)cc3)CC2)c(OCC(N)=O)c2c1CCCC2,800
11,CCCCCCCCNCCCSCCCNCCCCCCCC,1230
12,O=C(Nc1cccc(CN2CCCN(Cc3ccsc3)CC2)c1)c1ccc(Cl)c(Cl)c1,880
13,O=S(=O)(c1ccc2cc[nH]c2c1)N1CCC[C@@H]1CCN1CCC(c2c[nH]c3cnccc23)CC1,1020
14,O=C1CCCN1CCCNCc1cccc(-c2cccc(-c3nc4ccc(C(F)(F)F)cc4[nH]3)c2)c1,300
15,O=C(Nc1n[nH]c2nc(-c3ccco3)c(Br)cc12)c1ccc(CN2CCCC2)cc1,790
16,Nc1nc(F)nc2nc[nH]c12,430
17,COc1c(I)cc(Cc2cnc(N)nc2N)cc1I,930
18,CC(C)(C(=O)Nc1ccc(C2CCC(NCC3CC3)CC2)c(Cl)c1)c1cccc(OC(F)F)c1 (centres undefined),970
19,Cc1cc(N2CCCC2)nc(Nc2ccc(NC(=O)c3ccccc3F)cc2)n1,920
20,CCN(CC)CCN(Cc1ccc(-c2ccc(C(F)(F)F)cc2)cc1)C(=O)Cn1c(CCc2cccc(F)c2F)cc(=O)cc1-c1ccccc1,780
21,O=C(NCCCCN1CCC(c2ccc3c(c2OCc2ccccn2)CCCC3)CC1)c1ccc(NC(=O)c2ccc(Cl)cc2)cc1,800
22,Oc1cccc(CCNCCCCCCNCCc2ccc(Cl)cc2)c1,770
23,O=S(=O)(Nc1ccc2nccc(N3CCNCC3)c2c1)c1ccc2c(Cl)cccc2c1,570
24,CCN1CCC(N(Cc2ccc(-c3ccc(C(F)(F)F)cc3)cc2)C(=O)Cn2c(CCc3cccc(F)c3F)cc(=O)c3c2CCC3)CC1,970
25,NOCCCCOc1ccc(Br)cc1,190

row,Structure (SMILES),IC50 [nM]
1,CCOc1cccc(C(=O)Nc2ccc(-c3nc4ccccc4[nH]3)cc2)c1,1010
2,CCc1ccc2nc(-c3ccc(F)cc3)nc(SCC(=O)Nc3sc(C)c(C)c3C#N)c2c1,640
3,CC(Nc1cc(-c2ccccn2)nc(-c2ccccn2)n1)c1ccccc1 (centres undefined),450
4,CSc1ccc2ccccc2c1CNCCCCCCNCc1c(SC)ccc2ccccc12,800
5,NC1=Nc2ccc(Cl)cc2C1(O)c1ccccc1 (centres undefined),880
6,CC(C)CCNCc1ccc(OCc2cccc(COc3ccc(CNCCC(C)C)cc3I)c2)c(I)c1,450
7,COc1ccc(CNCCc2cccs2)cc1-c1ccc(OC)c(S(=O)(=O)NCCN2CCCC2)c1,1410
8,Cc1cc(NC(=O)Nc2ccc(Oc3ccccc3)cc2)c2ccccc2n1,840
9,O=C(NC1CCCC1)c1ccc(N2CCC(NCc3cc4cc(Cl)ccc4[nH]3)CC2)cc1,1220
10,CN1CC[C@@H](Oc2cc(C(=O)NCc3ccc(Cl)c(Cl)c3)ccc2C(F)(F)F)C1,1250
11,COc1ccccc1-c1cccc(CNC2CCN(CC3Cn4c(=O)ccc5ccc(F)c3c54)CC2)c1 (centres undefined),1380
12,CC(C)(C)N1CCC(N(Cc2ccc(-c3ccc(C(F)(F)F)cc3)cc2)C(=O)Cn2c(CCc3cccc(F)c3F)cc(=O)c3ccccc32)CC1,790
13,CCNc1cc(C(=O)N[C@@H](Cc2ccccc2)[C@H](O)CNC2(C(C)C)CCC2)cc(N2CCCCS2(=O)=O)c1,680
14,NC(N)=NCCCN(Cc1ccccc1)c1ccc(Cl)cc1,560
15,CC(Cc1ccc(C(=O)Nc2ccc(CC(C)NCCc3cccc(Cl)c3)cc2)cc1)NCCc1ccc(C(F)(F)F)cc1 (centres undefined),570
16,COc1cccc(C(=O)Nc2ccc(Nc3nc(C)cc(N4CCCCC4)n3)cc2)c1OC,1020
17,Cc1ccc(F)c(NC(=O)c2c(-c3c(F)cccc3Cl)noc2C)c1,930
18,N=C(N)c1cc(Br)cc(NC(=O)Nc2cc(Br)cc(C(=N)N)c2)c1,820
19,O=C(C=CC(=O)N1CCCCC1)NCc1ccccc1,730
20,NC(N)=Nc1nc(-c2ccc(NCc3ccc(CNc4cccc(-c5csc(N=C(N)N)n5)c4)cc3)cc2)cs1,310
21,O=C(Nc1ccccc1)Nc1cccc(-c2nn3c(OCCN4CCCC4)cccc3c2-c2ccncc2)c1,400
22,CN(CCCCCN1CCC(NC(=O)Nc2ccc(Oc3ccccc3)cc2)C1)C(=O)/C=C/c1ccc(Cl)c(Cl)c1 (centres undefined),420
23,CCOc1ccc2c(NN=Cc3c4ccccc4cc4ccccc34)cc(C)nc2c1,1070
24,N#Cc1ccccc1Sc1ccccc1C(=O)Nc1ccc2ccccc2n1,510
